Like-named read-outs stand apart in the source and are kept apart here.
What was measured:
[1] = tested on: bladder cancer cell lines 5637, HT-1376, T-24, MB-49; assay: Cell cycle analysis, statements across the tested cell lines; assay type: cell-based; conditions: for effect on cell cycle distribution: 12 µM, bladder cancer cell lines
Description: (§1) Cells treated with some antiproliferative drugs are blocked from orderly progression from one stage of their mitotic cycle to the next due to inhibition of a specific stage of the cell cycle. Analysis by flow cytometry (FC) of DNA content in the nuclei of drug-treated cells is a well-established technique for evaluating the fractions of cells in each stage of the cell cycle based on their DNA content. In this study, we employed FC to examine whether treatment with UA or 5c affects the orderly cell cycle progression from G0/G1, S, and G2M before entering Mitosis (M). Figure 6 represents the effect of UA and 5c on cell cycle progression in four bladder cancer cell lines, 5637, HT-1376, T-24, and MB-49, after a […] treatment at a concentration of 12 µM. Following the treatment, nuclei suspensions from treated cells were prepared by direct cell lysis in a hypotonic solution, with simultaneous staining with PI (100 µg/mL). The resulting nuclei suspension and the samples were run on the flow cytometer and analyzed for DNA content.
(§2) Cells cultured in 35 mm diameter, 6-well cluster plates (Corning Inc., Corning, NY, USA) overnight at a density of 0.3 × 10^6 cells/well, and treated with various compounds at selected concentrations for 24 h. After completion of treatment, cells were washed twice with PBS, followed by the addition of Propidium Iodide (PI) containing […] solution [(0.1 mg/mL PI), 50mg Na-citrate, 15 µL of IGEPAL CA-630], 1 mL in each well, and incubated for 30–45 min at 37 °C and 5% CO2. After that data acquired using the NovoCyte Quanteon Flow Cytometer was analyzed using NovoExpress software (version 1.6.1).

[2] = tested on: MB49; assay: Cell cycle phase fractionation by flow cytometry (PI); assay type: cell-based, murine; conditions: MB49, 24 h, mean ± SD n=3
Description: as §1, §2

[3] = tested on: MCF-12A; assay: MTT assay, non-tumorigenic breast epithelial cell line; assay type: cell-based, human; conditions: for IC50: Homo sapiens, MCF-12A, MTT, 72 h, non-tumorigenic cells, read-out: IC50 (Mean ± SD), MCF-12A
Protocol: The synthesized hybrid conjugates 5a–d were evaluated for their antiproliferative activity against the established human bladder cancer cell lines T24 and 5637. Test compounds were dissolved in ultrapure dimethyl sulfoxide (DMSO), diluted in cell culture media, added to cells cultured in 96-well cluster wells, and incubated for 72 h. The concentration of DMSO in culture media was maintained at < 0.05%. As previously reported, the fraction of viable cells in the culture wells was compared to that in cultures with 0.05% DMSO-only using a colorimetric assay, the Methyl Tetrazolium Bromide (MTT) reduction assay. We determined the selectivity index (SI) of the compounds 5a–d against tumor cells by comparing their cytotoxicity to that of a non-tumorigenic breast epithelial cell line, MCF-12A, as well as a non-tumorigenic, immortalized urothelial cell line, UROtsa (Table 1, and Figure 2).
The antiproliferative activities of various compounds examined in this report were measured using the MTT (3-[4,5-dimethylthiazol-2-yl]-2,5-diphenyl-tetrazolium bromide) reduction assay, as previously described. Briefly, cells were seeded at 2 × 10^3 cells per well in a 96-well plate and cultured overnight. The cells were then treated with different doses (5 µM, 10 µM, 15 µM, 20 µM, 25 µM, 30 µM, 35 µM, 40 µM in DMSO) for 72 h. Viability of the treated cultures was estimated by conversion of MTT to the insoluble formazan after 3h incubation at 37 °C and 5% CO2. The purple-colored formazan crystals were dissolved in DMSO, and absorbance was recorded at wavelengths 570/640 nm using the Bio-Rad Benchmark Plus Microplate Reader. The percent of viable cells was calculated ODtreated cells/ODcontrol cell wells × 100.

[4] = tested on: MB49 cells; assay: Annexin V-FITC/PI apoptosis flow cytometry; assay type: cell-based, murine; conditions: Mus musculus, MB49, 24 h
Protocol: The potential of cells treated with UA or 5c to undergo dose-dependent apoptosis was explored using quantitative flow cytometric analysis, as shown in Figure 4. Utilizing a kit that detects quantitative binding of Annexin V to externalized phosphatidyl serine during the apoptosis cascade and permeability of Propidium iodide (PI) in cells undergoing cell death, we determined the cells at various stages of cell death following 24h incubation with UA and 5c in various bladder cancer cells.
We used a fluorescence-based Annexin V binding assay to determine the fraction of the cell population undergoing early and late apoptosis due to the cytotoxicity of the drugs. Cells plated in a 60 mm dish overnight at 0.3 × 10^6 cells/well were incubated with the selected drug at several doses for 24 h. Subsequently, treated cells were labeled with FITC-Annexin V using a kit (eBioscience™ Annexin V Apoptosis Detection Kits; Invitrogen # 88-8005-72, Thermo Fisher Scientific, Seoul, Korea) as per the manufacturer’s instructions. Intact cell suspension labeled with FITC-Annexin V and PI was run on the NovoCyte Quanteon flow cytometer, and data were acquired in list mode. Acquired data were analyzed using NovoExpress software (version 1.6.1). Cells treated with Staurosporine (0.2 µM) act as a positive control.

[5] = tested on: MB49 cells; assay: ROS estimation with H2DCFDA; assay type: cell-based, murine; conditions: MB49, 24 h; for ROS levels: 5–40 µM
Protocol: Since 5c was not toxic to non-tumorigenic cells, such as MCF12A and UROtsa, these cells were excluded from experiments aimed at identifying the broad mechanism of cytotoxicity. A common mechanism by which these antioxidants induce cytotoxicity in tumor cells is by generating Reactive Oxygen Species (ROS) selectively in fast-growing tumor cells. The levels of ROS generated by 5c exposed cells were evaluated with the oxidation of 2′,7′-dichlorodihydrofluorescein diacetate (H2DCFDA). It is a cell-permeant fluorescent probe used for detecting ROS production (Thermo Scientific Inc., Waltham, MA, USA). […] Figure 3 illustrates the quantification of intracellular ROS levels in four bladder cancer cell lines, 5637, T24, HT-1376, and MB49, following treatment with UA and its biotin-conjugated derivative, compound 5c.
The relative levels of intracellular ROS produced in untreated and drug-treated cells were analyzed by fluorimetry using the fluorescent probe H2DCFDA (Sigma-Aldrich, #D6883, St. Louis, MI, USA), as described previously. Briefly, cells cultured in a 96-well plate at 1 × 10^4 cells per well were treated with drugs of interest for 24 h rinsed with sterile PBS to remove excess drugs, and incubated with 10 μM DCFDA for 30 min at 37 °C and 5% CO2. Following three rinses with PBS, the fluorescence intensity was recorded at excitation: 485/20, emission: 528/20 using a BioTek Synergy HTX Multimode fluorescence plate reader (Agilent Technologies, Inc., Santa Clara, CA, USA), and the data were represented as percentage change compared to the respective untreated control.
Figure 3 Estimation of oxidative stress: Treatment with UA or 5c increased ROS levels in various bladder cancer cells. ROS levels were estimated at 24 h using DCFDA. The relative fluorescence unit (RFU) was normalized to that observed in untreated cells and expressed as a percent increase. Data are Means ± SD, (n = 4). Relative significance, expressed as p-value are calculated based on one-way ANOVA.

| Structure (SMILES) | effect on cell cycle distribution [1] | increase in the G1-phase population compared with untreated control ([1]; across the tested cell lines) | Cell-Cycle Phase-Fractions G1 [2] | Cell-Cycle Phase-Fractions G2/M [2] | Cell-Cycle Phase-Fractions S [2] | IC50 [3] [µM] | toxicity to non-tumorigenic cells ([3]; MCF12A) | viability at 10 µM ([4]; MB49, 10 µM, 24 h, read-out: Q4-3 (Q3, viable) cells) [%] | viability at 15 µM ([4]; MB49, 15 µM, 24 h, read-out: Q4-3 (Q3, viable) cells) [%] | ROS levels [5] | ROS response relative to UA ([5]; 30–40 µM) | viability at 10 µM ([4]; read-out: Q4-3 (Q3, viable) cells, MB49, 10 µM, 24 h) [%] | viability at 15 µM ([4]; read-out: Q4-3 (Q3, viable) cells, MB49, 15 µM, 24 h) [%] |
| --- | --- | --- | --- | --- | --- | --- | --- | --- | --- | --- | --- | --- | --- |
| CC1CCC2(C(=O)OCCCCOC(=O)CCCCC3SCC4NC(=O)NC43)CCC3(C)C(=CCC4C5(C)CCC(O)C(C)(C)C5CCC43C)C2C1C [Compound 5c, 4-((5-((3aS,4S,6aR)-2-Oxohexahydro-1H-thieno [3,4-d]imidazol-4-yl)pentanoyl)oxy) butyl 3-hydroxy-urs-12-en-28-oate] | G1 phase arrest | 20–30% | 53.52 ± 1.25 % of total | 18.43 ± 0.69 % of total | 28.05 ± 0.56 % of total | 83.11 ± 0.3 | not toxic | 39.4 | 35.6 | concentration-dependent increase in ROS levels | more robust ROS response | – | – |
| C[C@H]1[C@H](C)CC[C@]2(C(=O)O)CC[C@]3(C)C(=CC[C@@H]4[C@@]5(C)CC[C@H](O)C(C)(C)[C@@H]5CC[C@]43C)[C@H]12 [UA, Ursolic acid] | more modest shift in phase distribution | – | 59.75 ± 0.77 % of total | 19.12 ± 1.09 % of total | 21.13 ± 1.49 % of total | 56.4 ± 7.6 | – | – | – | concentration-dependent increase in ROS levels | – | 74.4 | 64.5 |
